Reference: US12478602B2, “Method for treating a disorder” (priority 2023, dated 2025)
Read-outs that look alike come from different tables or passages of the source.

What was measured:
[1] = Pharmacokinetic experiment in healthy adult males; format: in vivo, human; settings: for AUC(0-t): read-out: average AUClast of L-serine without baseline correction
Procedure: 24 hours before the administration with AST-001 (main component: L-serine), blood was collected to measure the concentration of L-serine. 60 g of an AST-001 powder is a white homogeneous powder without having foreign substances, divided and repackaged into an HDPE bottle or a bottle made of the same material, and the composition of this drug is such that 1,000 mg of the main component L-serine is comprised per 1,000 mg dose. [table]

[2] = test system: mice having autism spectrum disorder; assay: Social cognition experiment in mouse model of autism spectrum disorder; format: in vivo; settings: 500 mg/kg orally once a day for 2 weeks from age 3 weeks
Source text: Pregnant C57BL/6 mice were subcutaneously injected with valproic acid (VPA) at the time when the gestation period reached 12 days. Male mice were selected from the mice that were born from the pregnant mice that were subcutaneously injected with VPA, and these were used as animals for a mouse model of autism spectrum disorder.
Since 3-week-old mice are at the critical stage, 3-week-old normal mice and 3-week-old mice having autism spectrum disorder were subjected to a sociality experiment, a social cognition experiment, and an anxiety experiment to identify the underlying features. 500 mg/kg of L-serine (hereinafter, referred to as AST-001) was orally administered for 2 weeks to mice having autism spectrum disorder, in which the underlying features had been confirmed. The mice having autism spectrum disorder, to which AST-001 had been orally administered for 2 weeks, were again subjected to a sociality experiment, a social cognition experiment, and an anxiety experiment.
A social cognition experiment, which measures whether or not an experimental mouse moves in the direction of a non-familiar mouse in a case where the experimental mouse is placed between a non-familiar mouse and a familiar mouse, was carried out (see FIG. 1B). […]

[3] = test system: children having autism spectrum disorder; assay: Phase 2 clinical trial, effectiveness; format: in vivo, human; settings: high-dose short-term administration group, 24 weeks vs 12 weeks
Procedure: 151 children having autism spectrum disorder were subjected to a multicentered, randomly assigned, double-blinded, placebo-controlled, and therapeutically exploratory phase 2 clinical trial for exploring the effectiveness and evaluating the safety of an AST-001 syrup. An AST-001 syrup used in a clinical trial is a colorless or pale yellow clear syrup which is aromatic and has sweetness, and it comprises, as a main ingredient, 10 g of L-serine in about 100 mL of this drug and is packaged in aluminum foil at a dosage of 2 g/20 mL. The composition of the AST-001 syrup is such that the AST-001 syrup comprises L-serine as a main ingredient, sodium carboxymethyl cellulose as a thickener, methyl paraoxybenzoate and propyl paraoxybenzoate as preservatives, a citric acid hydrate and a potassium citrate hydrate as pH adjusting agents, white sugar and a D-sorbitol solution as sweetening agents, an apple mint flavor SJ-G (22005221) as a fragrance imparting agent, and purified water. […] After the extension study period of 12 weeks ended, the effectiveness and adverse events in patients were followed up and monitored for 12 weeks (that is, follow-up period). […] The K-VABS-II Adaptive Behavior Composite (K-VABS-II ABC) score, which is a primary evaluation variable, is a calculated score (standard score) for the main domain, where the higher score means the higher level of adaptive behavior.

[4] = Pharmacokinetic experiment in Beagle dog; format: in vivo; settings: for bioavailability / half-life: Beagle, dog, plasma; for bioavailability: po, read-out: bioavailability by the oral administration; for half-life: read-out: drug loss half-life (t1/2) (converted); for AUCinf: fasting
Procedure: 4 g or 8 g of L-serine was orally or intravenously administered to Beagle dogs (1.8 to 2.6 years old, 8.6 to 11.6 kg, n=20). Blood collection was divided into blood collection before L-serine administration (basal blood collection) and blood collection after administration (main blood collection). During the experiment, the Beagle dogs were maintained in a fasting state, and L-serine concentration in the plasma was analyzed by LC-MS/MS.

Which CLss/F ([1]; 15 g twice a day for 7 days, N = 7, mean ± SD) does the source give for `N[C@@H](CO)C(=O)O` [AST-001, L-serine] here?
The CLss/F was 21.97 ± 5.99 L/h.

And the AUC ([1]; male, human, blood, oral, 15 g, 15 g twice a day for 1 week, steady state, read-out: average AUCtau of L-serine without baseline correction)?
Its AUC is ~883 µg·h/mL.

And the AUC ([1]; male, human, blood, oral, 15 g, 15 g twice a day for 7 days, N = 7, mean ± SD, read-out: AUCtau, ss)?
Its AUC is 729 ± 202 µg·h/mL.

What about the Cmax ([1]; male, human, blood, oral, 15 g twice a day for 7 days, N = 7, mean ± SD) of the same compound?
The Cmax was 212 ± 56.2 µg/mL.

And the Vd/F ([1]; male, human, blood, oral, 15 g twice a day for 7 days, N = 7, mean ± SD, read-out: Vz/F)?
Its Vd/F is 348 ± 220 L.

What about the half-life ([1]; male, human, blood, oral, 15 g twice a day for 7 days, N = 7, mean ± SD, read-out: t1/2 (converted)) of the same compound?
The half-life was 661 ± 310 min.

What about the Tmax ([1]; male, human, blood, oral, 15 g twice a day for 7 days, N = 7, median value) of the same compound?
The Tmax was 1 h.

And the half-life ([1]; male, human, blood, oral, read-out: average half-life of extrinsically administered L-serine)?
The half-life was 390 to 840 min.

And the AUC(0-t) ([1]; male, human, blood, oral, single administration 10 g)?
Its AUC(0-t) is 613 µg·h/mL.

What about the AUC(0-t) ([1]; male, human, blood, oral, single administration 20 g) of the same compound?
Its AUC(0-t) is 1130 µg·h/mL.

What about the AUC(0-t) ([1]; male, human, blood, oral, single administration 30 g) of the same compound?
Its AUC(0-t) is 1530 µg·h/mL.

What about the half-life ([1]; male, human, blood, po, 15 g orally twice a day for 7 days, steady state, read-out: average half-life (converted)) of the same compound?
The half-life was ~660 min.

What about the “Cmax, AUClast, and AUCinf with increasing dosage” value ([1]; single oral 10 g, 15 g, 20 g or 30 g) of the same compound?
Its value is “linearly increased”.

And the average accumulation index ([1]; steady state vs single administration with 15 g)?
Its average accumulation index is “about 1.7 times”.

And the “interaction time with the non-familiar mouse vs interaction time with the familiar mouse” value [2]?
The value was “significantly higher”.

What about the “preference index for the non-familiar mouse” value [2] of the same compound?
Its value is “high”.

What about the “amount of score change in the K-VABS-II ABC and the main domain, 2DC and CGI-S” value [3] of the same compound?
The value was “significantly improves”.

And the bioavailability ([4]; 4 g per individual)?
The bioavailability was 106%.

And the bioavailability ([4]; 8 g per individual)?
The bioavailability was 84.2%.

And the half-life ([4]; oral 4 g)?
The half-life was 228 ± 84 min.

And the half-life ([4]; oral 8 g)?
Its half-life is 282 ± 108 min.

What about the AUCinf ([4]; oral 4 g) of the same compound?
The AUCinf was 628 ± 108 µg·h/mL.

What about the AUCinf ([4]; oral 8 g) of the same compound?
Its AUCinf is 1330 µg·h/mL.
